{"source": "patent US20170056463A1", "about": "“COMPOSITIONS AND METHODS FOR TREATING DIABETES” (priority 2015, published 2017)", "origin": "cited, not measured here", "key": {"[1]": {"system": "HSV (herpes simplex virus)"}, "[2]": {"assay": "not given", "remark": "listed apart in the source"}, "[3]": {"system": "phosphotyrosine phosphatase"}}}
{"smiles": "[Zn]", "note": "[zinc]", "values": [{"measurement": "blood glucose levels", "setting": "2 hour post-prandial measurements in people treated with zinc", "value": "reduced"}, {"measurement": "systolic and diastolic blood pressures", "setting": "after zinc supplementation", "value": "significant reduction"}]}
{"smiles": "COc1ccc2cc3[n+](cc2c1OC)CCc1cc2c(cc1-3)OCO2", "note": "[berberine]", "values": [{"measurement": "growth of HSV", "setting": "[1]", "value": "inhibits growth"}, {"measurement": "levels of fasting blood sugar", "setting": "[2]; after oral supplementation with the herbal extract of berberine, patients with pre-diabetes and diabetes", "value": "normalize"}, {"measurement": "lowering of blood glucose", "setting": "[2]; doses of about 1,000 mg daily, compared with metformin", "value": "as effectively as metformin"}, {"measurement": "cholesterol ratios", "setting": "[2]; previous investigations", "value": "improved"}, {"measurement": "hemoglobin A1c (HbA1c)", "setting": "[2]; previous investigations", "value": "significant reduction"}]}
{"smiles": "[Cr]", "note": "[Chromium, chromium]", "values": [{"measurement": "phosphotyrosine phosphatase activity", "setting": "[3]", "value": "inhibit"}]}
